The test system of one experiment is NMDA receptor. The experiment can be described thus: [3H]MK-801 displacement radioligand binding, rat forebrain membranes. Here is the method:
The identification of possible recognition sites for PRS-211 analogs was carried out by measuring the ability of these PRS-211 analogs to inhibit the binding of MK-801 to rat forebrain membranes.
Brains were removed from Sprague-Dawley rats no more than 5 min after decapitation. Membrane preparations were isolated according to a procedure described previously (Eshhar et al., Brain Res. 476:57, 1989). Prior to radioligand binding measurements, endogenous glutamate present in membranes was removed from the preparation by subjecting the membranes to 3–4 successive washings in 10 mM Tris HCl pH 7.2, performed at 4° C.
The specific binding of the new analogs to NMDA receptors was determined by their ability to displace [^3H]MK-801 from NMDA receptor in rat forebrain preparations. Specifically, rat-forebrain membranes (0.1 mg) were incubated for 2 hours at room temperature with 10 nM of tritiated MK-801 and with the PRS-211 compounds at 3 doses each. Non-specific binding was determined by the use of 0.1 mM MK-801. Following the incubation, bound radioligand was separated from unbound by filtration through GF/B filters. The filters were counted in a β-counter and log of analog concentrations versus % of [^3H]MK-801 specific binding was plotted. The IC50 was calculated from this plot.
Binding of [^3H]MK-801 to membranes was carried out in the presence of 30 μM glycine and 10 μM L-glutamate. Membranes (250 μg protein) were resuspended in 50 mM tris-acetate pH 7.4 buffer and incubated with 10 nM [^3H]MK-801, either alone or in the presence of PRS-211 compounds at 0.1–100 μM concentrations for three hours at room temperature (RT). Reaction buffers used in the different radioligand binding studies contained 10% of an ethanol/Emulphor 620/deionized water mixture. The ratio (by volume) of the respective components in the mixture was 20/3/57. This mixture is required for solubilizing PRS-211 compounds at concentrations above 30 μM. Reaction volume was 1 ml. Non-specific [^3H]MK-801 binding was determined in the presence of 100 μM unlabeled MK-801.
Concentration dependence of certain PRS-211 analogs on inhibition of [^3H]MK-801 binding is illustrated in FIG. 1.

For experiment [1], the system named is T1, nitric oxide synthase (NOS).
T1 construct: endogenous in cells
T1 sequence (P35228 whole entry): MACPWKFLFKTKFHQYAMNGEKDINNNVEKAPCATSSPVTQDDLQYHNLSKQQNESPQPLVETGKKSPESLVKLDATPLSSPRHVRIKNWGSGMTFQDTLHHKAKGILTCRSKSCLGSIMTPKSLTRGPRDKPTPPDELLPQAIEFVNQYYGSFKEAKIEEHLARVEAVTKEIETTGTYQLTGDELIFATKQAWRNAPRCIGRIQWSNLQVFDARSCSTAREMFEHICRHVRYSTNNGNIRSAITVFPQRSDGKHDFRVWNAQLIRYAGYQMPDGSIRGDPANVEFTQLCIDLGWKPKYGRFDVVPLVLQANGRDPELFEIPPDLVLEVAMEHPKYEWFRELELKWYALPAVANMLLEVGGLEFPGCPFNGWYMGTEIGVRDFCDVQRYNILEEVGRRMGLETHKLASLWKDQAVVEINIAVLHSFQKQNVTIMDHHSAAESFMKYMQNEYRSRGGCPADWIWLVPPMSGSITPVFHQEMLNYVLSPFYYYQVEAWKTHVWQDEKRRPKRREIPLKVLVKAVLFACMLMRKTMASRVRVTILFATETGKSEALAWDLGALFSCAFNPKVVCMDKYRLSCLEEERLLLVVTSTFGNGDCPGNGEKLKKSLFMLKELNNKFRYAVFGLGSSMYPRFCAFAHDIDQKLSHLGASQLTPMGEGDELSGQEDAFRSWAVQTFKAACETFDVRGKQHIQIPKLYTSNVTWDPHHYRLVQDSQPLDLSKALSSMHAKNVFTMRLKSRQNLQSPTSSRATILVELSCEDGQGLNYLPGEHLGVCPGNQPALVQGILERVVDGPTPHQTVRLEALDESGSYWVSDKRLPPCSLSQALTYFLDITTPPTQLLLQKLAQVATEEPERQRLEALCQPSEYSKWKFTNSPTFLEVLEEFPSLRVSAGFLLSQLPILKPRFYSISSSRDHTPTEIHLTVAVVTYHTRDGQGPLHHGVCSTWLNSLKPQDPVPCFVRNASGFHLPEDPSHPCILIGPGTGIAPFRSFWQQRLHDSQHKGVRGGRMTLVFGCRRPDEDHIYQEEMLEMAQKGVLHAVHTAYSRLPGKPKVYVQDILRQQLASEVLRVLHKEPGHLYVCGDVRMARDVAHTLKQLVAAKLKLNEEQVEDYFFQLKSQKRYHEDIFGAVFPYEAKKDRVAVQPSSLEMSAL
In words: Inhibition of nitric oxide synthase, fluorimetric nitrite assay in LPS-stimulated macrophage supernatants. It is filed as cell-based. As to conditions: macrophage cell cultures. As to the method:
As one aspect of the anti-oxidative potential of the novel analogs they were tested for their ability to inhibit the enzyme nitric oxide synthase (NOS). This assay can also serve as another indication of the anti-inflammatory cascade, as well as the anti-oxidative mechanisms.
The final products of NOS are Nitrite (NO2) and Nitrate (NO3). The in vitro fluorimetric assay provides an accurate method for the measurement of the Nitrite, which is the majority of NO products. The principle of the fluorimetric assay is based on the addition of DAN (2,3-diaminonaphthalene) to the aliquots of the supernatants collected from macrophage cell cultures incubated with the new analogs and stimulated with LPS. Following, NaOH was added to convert Nitrite to a fluorescent compound 1(H)-naphthtriazole. The fluorescence was measured immediately in a fluorimeter using excitation wavelength of 365 nm and an emission wavelength of 450 nm.

The test system of the next experiment is tail flick model in mice. In words: Tail flick model: analgesic effect and tolerance to morphine. The class given is in vivo, ICR male mice. The following applies: for analgesic activity administered separately: escalating doses of up to 10 mg/kg i.p. An excerpt:
A mice model of acute pain, the tail flick model, was used to test the ability of compounds to prolong the analgesic activity of opioids, by preventing the development of tolerance, and their ability to reverse established tolerance.
The following animal model of acute pain was used to assess the potential analgesic effects of test compounds either alone or in combination with morphine. […] In this model the nociceptive stimulus is thermal and the latency time till the animal flicks its tail is monitored (Le Bars D., Gozariu M. & Cadden S. W., Pharmacol. Rev. 53: 597–652, 2001).
Hyperalgesia to radiant heat was assessed as follows. ICR male mice (20–30 g average body weight, Harlan, Israel) were injected with test compounds i.p. at the volume dose of 5 ml/kg. Each treatment group contained at least 6 animals. The test compounds were dissolved in Cremophor®:ethanol (70:30 weight/weight) and diluted 1:20 in saline prior to injection. Morphine HCl was directly dissolved in saline. Its vehicle was also included as control. Pain threshold was determined 30 minutes post-administration by measuring the foot-withdrawal latency defined as the time from the onset of radiant heat to foot withdrawal. The cut-off time was preset to 10 seconds in order to prevent tissue damage. […] Test compounds (5 mg/kg) and vehicle (5 ml/kg) were administered 15 minutes before morphine and pain threshold was determined 30 minutes after the first injection of morphine on day 1, 5, 8 and 10. […] Pain threshold was determined on day 1 and 10.
In each type of study, the animals were tested on given days 30 minutes after morphine injection in the tail flick apparatus (Socrel, model DS 20). Animals were gently held while their tails were located above the photoelectric cell. The tails were then illuminated (21V) at 2 cm from the distal tip and the latency time, measured in seconds, was recorded in duplicates. The results are expressed either as absolute latency time or as percent of animals that enjoyed significant analgesia as measured by the fact that their latency time is at least twice the latency time for vehicle treated animals. At the end of the study, the animals were euthanized by i.p. injection of 100 mg/kg sodium pentobarbitone.
The differences between the latency times among various treatment groups was analyzed by analysis of variance (ANOVA) followed by post-hoc Duncan test. The differences between the % of animals showing analgesia among various treatment groups was analyzed by analysis of variance (ANOVA) followed by post-hoc Fisher exact test. A value of p<0.05 is considered to be statistically significant.

Turning to `CCCCCCC(C)(C)c1cc(O)c2c(c1)OC(C)(C)C1CC=C(CSc3ncc[nH]3)CC21` (single isomer, unassigned; (+)) [211,092-000], the “NMDA receptor binding / affinity (in words)” value with NMDA receptor was “low affinity”. The inhibition at 10 µM in experiment [1] came out at 86%. For the same compound, in the experiment with tail flick model in mice, the “analgesic activity administered separately” value is “no significant analgesic activity”.

Take `CCCCCCC(C)(C)c1cc(O)c2c(c1)OC(C)(C)[C@H]1CC=C(Cn3cccn3)C[C@H]21` [211,220-000, (+)-(3S,4S)-6,6-Dimethyl-(1,1-dimethylheptyl)-1-hydroxy-9-(pyrazolomethyl)-6a,7,10,10a-tetrahydro-6H-dibenzo[b,d]pyran]: the “NMDA receptor binding / affinity (in words)” value with NMDA receptor was “relatively high affinity”. The compound further had an inhibition at 10 µM in experiment [1] of 24%. Also, in the experiment with tail flick model in mice (5 mg/kg in combination with 10 mg/kg i.p. morphine over 10 days), the “development of tolerance to morphine” value is listed as “effective in reducing the development of tolerance toward opioid”. For the same compound, in the experiment on tail flick model in mice, the “analgesic activity administered separately” value is on record as “no significant analgesic activity”. The “reversal of established tolerance to morphine” value in the experiment with tail flick model in mice (in combination with morphine from day 11, tested day 12, 15, 17, PRS-211,220 5 mg/kg, dextromethorphan 20 mg/kg) is recorded as “trend of reversal at all time points tested which became statistically significant on day 17”.

On to `CCCCCCC(C)(C)c1cc(O)c2c(c1)OC(C)(C)C1CC=C(Cn3ccnc3)CC21.Cl` (single isomer, unassigned; (+)) [211,095-000, (+)-(3S ,4S )-6,6-Dimethyl-(1,1-dimethylheptyl)-1-hydroxy-9-(imidazolomethyl)-6a,7,10,10a-tetrahydro-6H-dibenzo[b,d]pyran], for which the “NMDA receptor binding / affinity (in words)” value in the experiment on NMDA receptor was “relatively high affinity”. This compound also showed an inhibition at 10 µM in experiment [1] of 34%. Further, in the experiment with tail flick model in mice, the “analgesic activity administered separately” value was “no significant analgesic activity”.

In the case of `CCCCCCC(C)(C)c1cc(O)c2c(c1)OC(C)(C)[C@H]1CC=C(CO)CC21` (stereo partly drawn) [211,007-000, 1,1 dimethyl heptyl-(3S,4S)-7-hydroxy-Δ^6-tetrahydrocannabinol], the “NMDA receptor binding / affinity (in words)” value in the experiment with NMDA receptor was “competes with the binding of MK-801 to membranes”. Besides, on NMDA receptor (rat forebrain membranes, read-out: inhibition constant (KI) of [3H]MK-801 binding), the Ki turned out to be 11 ± 1.3 µM. Further, the IC50 on NMDA receptor (rat forebrain membranes, read-out: mean IC50 of [3H]MK-801 binding (FIG. 2)) was 10 µM. Moreover, the inhibition at 10 µM in experiment [1] turned out to be 20%.
